# Assay results as given in patent publication EP4285905A1, “CABERGOLINE OR A PHARMACEUTICALLY ACCEPTABLE SALT OR SOLVATE THEREOF, FOR USE IN PREVENTION OR DELAY OF POST-PREGNANCY BREAST CANCER IN A FEMALE MAMMAL” (Consejo Superior de Investigaciones Cientificas, priority 2022, dated 2023).
# Key:
# [1] = tested on: K14Cre; Brca1^F/F; P53^F/F; assay: Tumour latency and tumour incidence in the Brca1/P53 deficient mouse model; assay type: in vivo, mice
# Source text: The study model used was a genetically modified mouse, generated by the group led by Jos Jinkers from the Netherland Cancer Institute and generously donated to our group. It is a conditional double knock-out (KO) for Brca1 and P53 that expresses Cre-recombinase under the promoter of the cytokeratin-14 gene (K14) as a model named: K14Cre; Brca1^F/F; P53^F/F (hereinafter Brca1 or KO). These mice develop mammary tumours (cancers) with a penetrance of 100% (although it depends on whether they develop skin cancer first and must be sacrificed) and a median age of 7 months. They mimic human tumours with BRCA1 mutations, since they are basal-type and lose P53. Since Cre-recombinase under the promoter of the K14 gene is not only expressed in mammary cells, but also in other epithelial cells, these mice develop squamous cell carcinoma-like skin tumors. The cohort of mice used in this study has an FVB/N genetic background. […]
# [2] = tested on: Brca1/P53-deficient mice; assay: Ki-67 immunohistochemistry as a proliferation marker in the mammary epithelium; assay type: in vivo
# Method: Subsequently, the same groups of animals indicated were generated and samples were collected from the mammary glands at 1, 3, 7, 30 and 60 days post-gestation (in non-lactating multiparous) or post-weaning (in lactating multiparous, with and without treatment with cabergoline) (N = 5 mice per group at each time studied).
# Ki67 staining was performed at the Comparative Molecular Pathology Service of the Cancer Molecular and Cellular Biology Institute in Salamanca. Sections of the sample were made at 3 µm thickness. Sections were fished onto slides specially treated for this technique (Leica BOND Plus Slides, #S21.2113.A, Leica). The staining process was carried out using the Roche Discovery ULTRA research instrument. The protocol performed by the apparatus is as follows: deparaffinization of the sample, heating the slide to 69 °C; cell conditioning that consisted in the unmasking of the epitope by incubating the sample in a buffer formed by TRIS EDTA pH8 at a temperature of 100 °C for 32 minutes. Next, the primary antibody (Rabbit Anti-Human Ki-67 Monoclonal Antibody (Clone SP6), #MAD-020310Q, Master Diagnostica) was applied manually at a 1:50 dilution and incubated at 37 °C for 60 minutes. After incubation of the primary antibody, two washes with HRP buffer were performed. […]
# To quantify cells positive for Ki-67 or caspase 3, the Leica Application Suite (LAS) V3.7 program was used. […]
smiles,measurement,setting,value
"C=CCN1C[C@H](C(=O)N(CCCN(C)C)C(=O)NCC)C[C@@H]2c3cccc4[nH]cc(c34)C[C@H]21 [cabergoline, 1-[(6-allylergolin-8ß-yl)-carbonyl]-1-[3-(dimethylamino)propyl]-3-ethylurea]",tumour latency,"[1]; single intraperitoneal dose 0.25 mg/Kg at weaning after second lactation, vs pregnancy and lactation group P = 0.019, non-lactation pregnancy group P < 0.0001, nulliparous P < 0.0001",greater latency
same,tumour incidence,"[1]; single intraperitoneal dose 0.25 mg/Kg at weaning, 10 mice out of 37 developed tumour, vs lactating multiparous mice P = 0.0062",27.78%
same,epithelial proliferation (% of Ki67+ cells),[2]; 30 days post-weaning,profound hypoproliferative state
same,epithelial proliferation (% of Ki67+ cells),[2]; 60 days of post-lactational involution,hypoproliferative state
